Data published in patent publication US12252524B2, “GIP/GLP1 co-agonist compounds” (Eli Lilly and Company, priority 2018, dated 2025).
Numbered stars: 1 amine (or outer) side, 2 acyl side, 3 side chain; on linkers, the order of the positions; unused ones are H or OH. Square brackets hold non-standard residues; d marks the D form. Side chains are listed from the residue outwards. Peptide text beside a SMILES is read from it. * marks the point of attachment. C20 diacid = O=C(O)CCCCCCCCCCCCCCCCCCC(=O)*; αMePhe(2-F) = C[C@](N)(Cc1ccccc1F)C(=O)O; γGlu = O=C(O)[C@H](CCC(=O)[*:2])N[*:1]; αMeL = CC(C)C[C@](C)(N)C(=O)O; Orn = NCCC[C@H](N)C(=O)O; Dab = NCC[C@H](N)C(=O)O; Dap = NC[C@H](N)C(=O)O; AEEA = NCCOCCOCC(=O)O; Aib = CC(C)(N)C(=O)O

Legend:
[1] = target: human GLP-1 receptor (GLP-1R) (Homo sapiens, UniProt P43220); assay: cAMP pharmacological functional assay in presence of casein, hGLP-1R; assay type: cell-based; conditions: HEK293 cells expressing hGLP-1R, 0.1% Casein, geometric mean; read-out: hGLP1R cAMP Rel EC50 nM (SEM, n)
[2] = target: T1, gastric inhibitory peptide receptor (GIPR) (Homo sapiens, UniProt P48546); assay: cAMP pharmacological functional assay in presence of casein, hGIPR; assay type: cell-based; conditions: HEK293 cells expressing hGIPR, 0.1% Casein, geometric mean; read-out: hGIPR cAMP Rel EC50 nM (SEM, n)
T1 sequence (P48546 22-466): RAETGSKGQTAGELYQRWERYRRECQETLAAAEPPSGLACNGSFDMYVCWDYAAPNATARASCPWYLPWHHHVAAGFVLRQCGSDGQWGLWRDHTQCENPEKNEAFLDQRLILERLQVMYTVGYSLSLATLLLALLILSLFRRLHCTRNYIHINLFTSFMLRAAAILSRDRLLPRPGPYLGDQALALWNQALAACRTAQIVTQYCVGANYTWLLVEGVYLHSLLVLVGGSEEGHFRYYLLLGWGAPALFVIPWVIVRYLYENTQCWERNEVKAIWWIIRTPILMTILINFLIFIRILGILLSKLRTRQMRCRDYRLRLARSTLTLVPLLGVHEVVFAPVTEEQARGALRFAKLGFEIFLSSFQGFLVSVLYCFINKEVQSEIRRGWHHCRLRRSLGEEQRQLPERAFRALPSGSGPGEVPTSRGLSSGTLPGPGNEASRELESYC

Chain of human GLP-1 receptor (GLP-1R) (P43220 24-463): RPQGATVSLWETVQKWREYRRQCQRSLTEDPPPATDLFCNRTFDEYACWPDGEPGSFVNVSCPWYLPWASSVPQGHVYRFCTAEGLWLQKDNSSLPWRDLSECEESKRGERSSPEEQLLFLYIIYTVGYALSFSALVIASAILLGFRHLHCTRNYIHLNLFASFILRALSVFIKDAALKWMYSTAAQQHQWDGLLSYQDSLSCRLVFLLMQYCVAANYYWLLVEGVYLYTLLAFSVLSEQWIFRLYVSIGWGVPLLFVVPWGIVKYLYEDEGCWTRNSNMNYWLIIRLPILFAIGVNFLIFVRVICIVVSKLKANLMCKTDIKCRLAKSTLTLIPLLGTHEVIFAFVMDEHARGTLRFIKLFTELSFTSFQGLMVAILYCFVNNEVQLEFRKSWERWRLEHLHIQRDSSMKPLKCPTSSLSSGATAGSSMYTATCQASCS

Work on CC[C@H](C)[C@H](NC(=O)[C@H](CC(C)C)NC(=O)[C@H](Cc1ccc(O)cc1)NC(=O)[C@@H](CCC(=O)O)NC(=O)[C@@H](NC(=O)[C@H](Cc1ccccc1)NC(=O)[C@@H](NC(=O)C(C)(C)NC(=O)[C@H](CCC(N)=O)NC(=O)[C@H](C)NC(=O)[C@H](CCCCNC(=O)COCCOCCNC(=O)COCCOCCNC(=O)CC[C@H](NC(=O)CCCCCCCCCCCCCCCCCCC(=O)O)C(=O)O)NC(=O)[C@H](CCCN)NC(=O)[C@H](CC(=O)O)NC(=O)[C@H](CC(C)C)NC(=O)[C@](C)(CC(C)C)NC(=O)[C@@H](NC(=O)[C@H](CO)NC(=O)[C@H](Cc1c[nH]cn1)NC(=O)[C@H](CC(=O)O)NC(=O)[C@H](CO)NC(=O)[C@@H](NC(=O)[C@](C)(Cc1ccccc1F)NC(=O)[C@@H](NC(=O)CNC(=O)[C@H](CCC(=O)O)NC(=O)C(C)(C)NC(=O)[C@@H](N)Cc1ccc(O)cc1)[C@@H](C)O)[C@@H](C)O)[C@@H](C)CC)[C@@H](C)O)[C@@H](C)CC)C(=O)N[C@@H](CCC(=O)O)C(=O)NCC(=O)NCC(=O)N1CCC[C@H]1C(=O)N[C@@H](CO)C(=O)N[C@@H](CO)C(=O)NCC(=O)N[C@@H](C)C(=O)N1CCC[C@H]1C(=O)N1CCC[C@H]1C(=O)N1CCC[C@H]1C(=O)N[C@@H](CO)C(N)=O [Example 171] (H-Y[Aib]EGT[αMePhe(2-F)]TSDHSI[αMeL]LD[Orn]K([AEEA-AEEA-γGlu-C20 diacid])AQ[Aib]TFI[dE]YLIEGGPSSGAPPPS-NH2) yielded an EC50 [1] of 0.75 nM and an EC50 [2] of 0.223 nM.
Molecule CC[C@H](C)[C@H](NC(=O)[C@H](CC(C)C)NC(=O)[C@H](Cc1ccc(O)cc1)NC(=O)[C@@H](CCC(=O)O)NC(=O)[C@@H](NC(=O)[C@H](Cc1ccccc1)NC(=O)[C@@H](NC(=O)C(C)(C)NC(=O)[C@H](CCC(N)=O)NC(=O)[C@H](C)NC(=O)[C@H](CCCCNC(=O)COCCOCCNC(=O)COCCOCCNC(=O)CC[C@H](NC(=O)CCCCCCCCCCCCCCCCCCC(=O)O)C(=O)O)NC(=O)[C@H](CCN)NC(=O)[C@H](CC(=O)O)NC(=O)[C@H](CC(C)C)NC(=O)[C@](C)(CC(C)C)NC(=O)[C@@H](NC(=O)[C@H](CO)NC(=O)[C@H](Cc1c[nH]cn1)NC(=O)[C@H](CC(=O)O)NC(=O)[C@H](CO)NC(=O)[C@@H](NC(=O)[C@](C)(Cc1ccccc1F)NC(=O)[C@@H](NC(=O)CNC(=O)[C@H](CCC(=O)O)NC(=O)C(C)(C)NC(=O)[C@@H](N)Cc1ccc(O)cc1)[C@@H](C)O)[C@@H](C)O)[C@@H](C)CC)[C@@H](C)O)[C@@H](C)CC)C(=O)N[C@@H](CCC(=O)O)C(=O)NCC(=O)NCC(=O)N1CCC[C@H]1C(=O)N[C@@H](CO)C(=O)N[C@@H](CO)C(=O)NCC(=O)N[C@@H](C)C(=O)N1CCC[C@H]1C(=O)N1CCC[C@H]1C(=O)N1CCC[C@H]1C(=O)N[C@@H](CO)C(N)=O [Example 172] (H-Y[Aib]EGT[αMePhe(2-F)]TSDHSI[αMeL]LD[Dab]K([AEEA-AEEA-γGlu-C20 diacid])AQ[Aib]TFI[dE]YLIEGGPSSGAPPPS-NH2; N-terminus assumed) has an EC50 [1] of 1.2 nM and an EC50 [2] of 1.05 nM.
In the case of CC[C@H](C)[C@H](NC(=O)[C@H](CC(C)C)NC(=O)[C@H](Cc1ccc(O)cc1)NC(=O)[C@@H](CCC(=O)O)NC(=O)[C@@H](NC(=O)[C@H](Cc1ccccc1)NC(=O)[C@@H](NC(=O)C(C)(C)NC(=O)[C@H](CCC(N)=O)NC(=O)[C@H](C)NC(=O)[C@H](CCCCNC(=O)COCCOCCNC(=O)COCCOCCNC(=O)CC[C@H](NC(=O)CCCCCCCCCCCCCCCCCCC(=O)O)C(=O)O)NC(=O)[C@H](CN)NC(=O)[C@H](CC(=O)O)NC(=O)[C@H](CC(C)C)NC(=O)[C@](C)(CC(C)C)NC(=O)[C@@H](NC(=O)[C@H](CO)NC(=O)[C@H](Cc1c[nH]cn1)NC(=O)[C@H](CC(=O)O)NC(=O)[C@H](CO)NC(=O)[C@@H](NC(=O)[C@](C)(Cc1ccccc1F)NC(=O)[C@@H](NC(=O)CNC(=O)[C@H](CCC(=O)O)NC(=O)C(C)(C)NC(=O)[C@@H](N)Cc1ccc(O)cc1)[C@@H](C)O)[C@@H](C)O)[C@@H](C)CC)[C@@H](C)O)[C@@H](C)CC)C(=O)N[C@@H](CCC(=O)O)C(=O)NCC(=O)NCC(=O)N1CCC[C@H]1C(=O)N[C@@H](CO)C(=O)N[C@@H](CO)C(=O)NCC(=O)N[C@@H](C)C(=O)N1CCC[C@H]1C(=O)N1CCC[C@H]1C(=O)N1CCC[C@H]1C(=O)N[C@@H](CO)C(N)=O [Example 173] (H-Y[Aib]EGT[αMePhe(2-F)]TSDHSI[αMeL]LD[Dap]K([AEEA-AEEA-γGlu-C20 diacid])AQ[Aib]TFI[dE]YLIEGGPSSGAPPPS-NH2), the EC50 [1] is reported as 1.23 nM and the EC50 [2] is reported as 0.586 nM.
For CC[C@H](C)[C@H](NC(=O)[C@H](CC(C)C)NC(=O)[C@H](Cc1ccc(O)cc1)NC(=O)[C@@H](CCC(=O)O)NC(=O)[C@@H](NC(=O)[C@H](Cc1ccccc1)NC(=O)[C@@H](NC(=O)C(C)(C)NC(=O)[C@H](CCC(N)=O)NC(=O)[C@H](C)NC(=O)[C@H](CCCCNC(=O)COCCOCCNC(=O)COCCOCCNC(=O)CCCCCCCCCCCCCCCCCCC(=O)O)NC(=O)[C@H](CCC(=O)O)NC(=O)[C@H](CC(=O)O)NC(=O)[C@H](CC(C)C)NC(=O)[C@](C)(CC(C)C)NC(=O)[C@@H](NC(=O)[C@H](CO)NC(=O)[C@H](Cc1c[nH]cn1)NC(=O)[C@H](CC(=O)O)NC(=O)[C@H](CO)NC(=O)[C@@H](NC(=O)[C@](C)(Cc1ccccc1F)NC(=O)[C@@H](NC(=O)CNC(=O)[C@H](CCC(=O)O)NC(=O)C(C)(C)NC(=O)[C@@H](N)Cc1ccc(O)cc1)[C@@H](C)O)[C@@H](C)O)[C@@H](C)CC)[C@@H](C)O)[C@@H](C)CC)C(=O)N[C@@H](CCC(=O)O)C(=O)NCC(=O)NCC(=O)N1CCC[C@H]1C(=O)N[C@@H](CO)C(=O)N[C@@H](CO)C(=O)NCC(=O)N[C@@H](C)C(=O)N1CCC[C@H]1C(=O)N1CCC[C@H]1C(=O)N1CCC[C@H]1C(=O)N[C@@H](CO)C(N)=O [Example 174] (H-Y[Aib]EGT[αMePhe(2-F)]TSDHSI[αMeL]LDEK([AEEA-AEEA-C20 diacid])AQ[Aib]TFI[dE]YLIEGGPSSGAPPPS-NH2), the EC50 [1] was 0.472 nM and the EC50 [2] was 0.217 nM.
Molecule CC[C@H](C)[C@H](NC(=O)[C@H](CC(C)C)NC(=O)[C@H](Cc1ccc(O)cc1)NC(=O)[C@@H](CCC(=O)O)NC(=O)[C@@H](NC(=O)[C@H](Cc1ccccc1)NC(=O)[C@@H](NC(=O)C(C)(C)NC(=O)[C@H](CCC(N)=O)NC(=O)[C@H](C)NC(=O)[C@H](CCCCNC(=O)COCCOCCNC(=O)COCCOCCNC(=O)[C@@H](N)CCCCNC(=O)CCCCCCCCCCCCCCCCCCC(=O)O)NC(=O)[C@H](CCC(=O)O)NC(=O)[C@H](CC(=O)O)NC(=O)[C@H](CC(C)C)NC(=O)C(C)(CC(C)C)NC(=O)[C@@H](NC(=O)[C@H](CO)NC(=O)[C@H](Cc1c[nH]cn1)NC(=O)[C@H](CC(=O)O)NC(=O)[C@H](CO)NC(=O)[C@@H](NC(=O)C(C)(Cc1ccccc1F)NC(=O)[C@@H](NC(=O)CNC(=O)[C@H](CCC(=O)O)NC(=O)C(C)(C)NC(=O)[C@@H](N)Cc1ccc(O)cc1)[C@@H](C)O)[C@@H](C)O)[C@@H](C)CC)[C@@H](C)O)[C@@H](C)CC)C(=O)N[C@@H](CCC(=O)O)C(=O)NCC(=O)NCC(=O)N1CCC[C@H]1C(=O)N[C@@H](CO)C(=O)N[C@@H](CO)C(=O)NCC(=O)N[C@@H](C)C(=O)N1CCC[C@H]1C(=O)N1CCC[C@H]1C(=O)N1CCC[C@H]1C(=O)N[C@@H](CO)C(N)=O (stereo partly drawn) [Example 175] has an EC50 [1] of 1.11 nM and an EC50 [2] of 0.0881 nM.
CC[C@H](C)[C@H](NC(=O)[C@H](CC(C)C)NC(=O)[C@H](Cc1ccc(O)cc1)NC(=O)[C@@H](CCC(=O)O)NC(=O)[C@@H](NC(=O)[C@H](Cc1ccccc1)NC(=O)[C@@H](NC(=O)C(C)(C)NC(=O)[C@H](CCC(N)=O)NC(=O)[C@H](C)NC(=O)[C@H](CCCCNC(=O)COCCOCCNC(=O)COCCOCCNC(=O)[C@@H](N)CCCCNC(=O)CCCCCCCCCCCCCCCCC(=O)O)NC(=O)[C@H](CCC(=O)O)NC(=O)[C@H](CC(=O)O)NC(=O)[C@H](CC(C)C)NC(=O)C(C)(CC(C)C)NC(=O)[C@@H](NC(=O)[C@H](CO)NC(=O)[C@H](Cc1c[nH]cn1)NC(=O)[C@H](CC(=O)O)NC(=O)[C@H](CO)NC(=O)[C@@H](NC(=O)C(C)(Cc1ccccc1F)NC(=O)[C@@H](NC(=O)CNC(=O)[C@H](CCC(=O)O)NC(=O)C(C)(C)NC(=O)[C@@H](N)Cc1ccc(O)cc1)[C@@H](C)O)[C@@H](C)O)[C@@H](C)CC)[C@@H](C)O)[C@@H](C)CC)C(=O)N[C@@H](CCC(=O)O)C(=O)NCC(=O)NCC(=O)N1CCC[C@H]1C(=O)N[C@@H](CO)C(=O)N[C@@H](CO)C(=O)NCC(=O)N[C@@H](C)C(=O)N1CCC[C@H]1C(=O)N1CCC[C@H]1C(=O)N1CCC[C@H]1C(=O)N[C@@H](CO)C(N)=O (stereo partly drawn) [Example 176] was tested, and the EC50 [1] was 1.07 nM and the EC50 [2] was 0.523 nM.
